This passage reports remaining binding results from patent US12275731B2, “Azaindole inhibitors of wild-type and mutant forms of LRRK2” (DANA-FARBER CANCER INSTITUTE, INC., priority 2018, dated 2025).

SMILES strings stand for the structures.

What all share (assay): KinomeScan profiling
Type in all cases: binding

In experiment [1] the target is T1, TNK1 (Homo sapiens, UniProt Q13470).
T1 sequence (Q13470 1-666): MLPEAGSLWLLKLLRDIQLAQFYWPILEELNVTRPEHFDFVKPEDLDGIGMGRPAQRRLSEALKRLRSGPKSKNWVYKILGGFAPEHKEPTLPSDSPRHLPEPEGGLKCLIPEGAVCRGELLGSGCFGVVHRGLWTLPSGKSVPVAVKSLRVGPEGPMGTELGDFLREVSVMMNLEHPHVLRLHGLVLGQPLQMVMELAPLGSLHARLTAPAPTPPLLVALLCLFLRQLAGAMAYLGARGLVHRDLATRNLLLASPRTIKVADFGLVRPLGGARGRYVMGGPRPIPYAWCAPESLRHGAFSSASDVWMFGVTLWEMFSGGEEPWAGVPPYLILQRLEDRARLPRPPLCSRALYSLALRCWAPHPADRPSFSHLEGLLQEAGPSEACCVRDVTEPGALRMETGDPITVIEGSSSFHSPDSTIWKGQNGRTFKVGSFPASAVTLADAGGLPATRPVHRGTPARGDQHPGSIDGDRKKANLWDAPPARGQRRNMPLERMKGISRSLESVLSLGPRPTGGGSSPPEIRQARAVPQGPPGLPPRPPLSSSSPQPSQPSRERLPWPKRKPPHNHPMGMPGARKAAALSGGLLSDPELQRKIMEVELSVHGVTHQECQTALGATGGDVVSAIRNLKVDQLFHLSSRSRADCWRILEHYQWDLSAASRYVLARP
The following applies: TNK1, 1 μM; read-out: % control. An outline of the steps: (§1)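 First, compounds in DMSO are added at 1 μM to each of 468 kinase assays. Next, RLU signals are normalised between positive control (0%) and DMSO (100%). Finally, kinases under 35% are flagged active.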

The target of experiment [2] is T2, ALK(C1156Y) (Homo sapiens, UniProt Q9UM73, C1156Y).
T2 construct: purchased KinomeScan®
T2 sequence (Q9UM73 19-1620 C1156Y): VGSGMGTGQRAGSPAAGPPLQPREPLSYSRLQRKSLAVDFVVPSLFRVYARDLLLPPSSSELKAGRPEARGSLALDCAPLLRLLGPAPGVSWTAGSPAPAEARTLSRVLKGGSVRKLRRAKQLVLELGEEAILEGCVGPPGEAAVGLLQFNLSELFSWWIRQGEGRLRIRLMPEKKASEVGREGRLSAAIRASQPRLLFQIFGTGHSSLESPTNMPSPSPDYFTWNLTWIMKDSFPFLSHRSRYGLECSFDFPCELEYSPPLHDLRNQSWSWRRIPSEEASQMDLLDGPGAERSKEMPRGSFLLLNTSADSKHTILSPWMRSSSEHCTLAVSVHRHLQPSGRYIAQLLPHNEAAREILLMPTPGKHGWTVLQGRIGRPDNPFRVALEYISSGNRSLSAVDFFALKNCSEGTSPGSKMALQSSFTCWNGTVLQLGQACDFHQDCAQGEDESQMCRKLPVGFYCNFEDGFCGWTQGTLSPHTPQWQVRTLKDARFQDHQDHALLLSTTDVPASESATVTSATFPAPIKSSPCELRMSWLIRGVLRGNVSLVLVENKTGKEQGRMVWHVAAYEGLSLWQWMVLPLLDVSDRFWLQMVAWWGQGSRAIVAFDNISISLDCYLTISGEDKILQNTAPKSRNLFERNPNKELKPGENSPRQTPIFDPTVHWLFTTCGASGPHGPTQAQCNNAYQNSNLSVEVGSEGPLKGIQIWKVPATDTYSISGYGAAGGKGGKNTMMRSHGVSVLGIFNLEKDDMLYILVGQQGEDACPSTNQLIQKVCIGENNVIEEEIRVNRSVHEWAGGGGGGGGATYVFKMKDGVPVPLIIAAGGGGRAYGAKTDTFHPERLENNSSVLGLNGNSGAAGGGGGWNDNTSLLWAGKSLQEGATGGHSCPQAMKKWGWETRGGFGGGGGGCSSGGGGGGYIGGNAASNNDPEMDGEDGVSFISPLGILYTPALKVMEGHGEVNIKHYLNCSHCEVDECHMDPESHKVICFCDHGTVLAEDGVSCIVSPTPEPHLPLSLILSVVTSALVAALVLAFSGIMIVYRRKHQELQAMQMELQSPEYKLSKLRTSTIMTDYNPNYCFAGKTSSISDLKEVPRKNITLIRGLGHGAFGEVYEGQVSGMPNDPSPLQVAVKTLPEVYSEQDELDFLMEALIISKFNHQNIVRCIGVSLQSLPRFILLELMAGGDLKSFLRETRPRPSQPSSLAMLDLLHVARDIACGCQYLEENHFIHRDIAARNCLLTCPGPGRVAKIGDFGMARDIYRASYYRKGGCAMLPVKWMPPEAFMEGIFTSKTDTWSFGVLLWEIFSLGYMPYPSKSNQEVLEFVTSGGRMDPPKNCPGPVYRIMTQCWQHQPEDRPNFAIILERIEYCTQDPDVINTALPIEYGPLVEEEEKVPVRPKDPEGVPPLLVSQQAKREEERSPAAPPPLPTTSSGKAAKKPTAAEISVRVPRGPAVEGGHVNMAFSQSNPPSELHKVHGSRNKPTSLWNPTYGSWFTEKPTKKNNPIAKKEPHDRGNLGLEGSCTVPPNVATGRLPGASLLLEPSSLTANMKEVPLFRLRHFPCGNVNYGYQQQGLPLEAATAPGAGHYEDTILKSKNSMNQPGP
The note with it: read-out: % control. An outline of the steps: as §1

The target of experiment [3] is T3, ULK1 (Homo sapiens, UniProt O75385).
T3 sequence (O75385 1-1050): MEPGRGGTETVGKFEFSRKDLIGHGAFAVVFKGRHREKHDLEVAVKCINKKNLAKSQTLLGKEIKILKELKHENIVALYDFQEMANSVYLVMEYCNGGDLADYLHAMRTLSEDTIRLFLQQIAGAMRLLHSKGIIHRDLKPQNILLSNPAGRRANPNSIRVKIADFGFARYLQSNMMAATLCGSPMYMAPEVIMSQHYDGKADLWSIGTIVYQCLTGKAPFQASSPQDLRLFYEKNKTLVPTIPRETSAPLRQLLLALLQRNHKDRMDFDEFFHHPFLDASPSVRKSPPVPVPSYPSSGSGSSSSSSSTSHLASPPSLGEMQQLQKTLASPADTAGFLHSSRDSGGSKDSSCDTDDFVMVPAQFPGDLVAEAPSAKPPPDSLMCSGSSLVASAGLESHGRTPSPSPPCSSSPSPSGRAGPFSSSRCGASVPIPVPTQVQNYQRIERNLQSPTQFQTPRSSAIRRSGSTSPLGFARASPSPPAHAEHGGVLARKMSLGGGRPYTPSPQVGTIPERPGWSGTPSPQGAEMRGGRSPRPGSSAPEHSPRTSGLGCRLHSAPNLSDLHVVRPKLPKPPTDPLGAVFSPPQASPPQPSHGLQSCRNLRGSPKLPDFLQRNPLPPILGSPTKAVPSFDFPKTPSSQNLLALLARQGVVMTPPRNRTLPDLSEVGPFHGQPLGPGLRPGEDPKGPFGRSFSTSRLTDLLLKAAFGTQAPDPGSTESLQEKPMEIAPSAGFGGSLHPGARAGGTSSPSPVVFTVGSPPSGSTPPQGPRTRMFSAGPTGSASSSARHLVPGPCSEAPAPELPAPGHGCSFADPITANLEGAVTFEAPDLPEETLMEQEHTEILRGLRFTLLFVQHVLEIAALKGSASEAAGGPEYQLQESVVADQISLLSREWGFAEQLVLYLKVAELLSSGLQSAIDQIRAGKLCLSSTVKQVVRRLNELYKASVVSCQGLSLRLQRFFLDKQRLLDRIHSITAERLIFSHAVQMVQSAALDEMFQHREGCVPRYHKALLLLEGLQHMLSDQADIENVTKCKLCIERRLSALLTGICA
The note with it: ULK1, 1 μM; read-out: % control. The gist of the method: as §1

For experiment [4], the target named is BRK (Homo sapiens, UniProt Q13882). The following applies: read-out: % control. An outline of the steps:
as §1

The target of experiment [5] is RIOK2 (Homo sapiens, UniProt Q9BVS4). The note with it: RIOK2, 1 μM; read-out: % control. The gist of the method: as §1
Chain of RIOK2 (Q9BVS4 whole entry): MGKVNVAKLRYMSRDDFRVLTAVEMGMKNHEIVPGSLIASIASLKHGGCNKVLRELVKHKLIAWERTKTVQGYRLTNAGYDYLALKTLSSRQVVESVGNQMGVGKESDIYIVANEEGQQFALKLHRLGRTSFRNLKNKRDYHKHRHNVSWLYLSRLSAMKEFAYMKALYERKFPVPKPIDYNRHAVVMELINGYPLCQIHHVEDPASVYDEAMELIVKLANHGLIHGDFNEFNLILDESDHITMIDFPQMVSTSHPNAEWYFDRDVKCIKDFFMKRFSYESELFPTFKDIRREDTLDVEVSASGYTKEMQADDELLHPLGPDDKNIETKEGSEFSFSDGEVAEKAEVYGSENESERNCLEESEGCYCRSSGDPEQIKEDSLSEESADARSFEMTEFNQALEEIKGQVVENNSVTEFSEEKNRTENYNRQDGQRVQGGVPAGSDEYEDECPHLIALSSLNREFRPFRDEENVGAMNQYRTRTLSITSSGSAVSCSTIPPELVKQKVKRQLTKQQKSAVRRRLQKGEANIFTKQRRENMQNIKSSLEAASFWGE
The target of experiment [6] is CAMKK1 (Homo sapiens, UniProt Q8N5S9). The following applies: CAMKK1, 1 μM; read-out: % control. The gist of the method:
as §1

Experiment [7] concerns the target DDR1 (Homo sapiens, UniProt Q08345). The following applies: DDR1, 1 μM; read-out: % control. The gist of the method: as §1
For experiment [8], the target named is T4, IRAK3 (Homo sapiens, UniProt Q9Y616).
T4 construct: purchased KinomeScan®
T4 sequence (Q9Y616 1-596): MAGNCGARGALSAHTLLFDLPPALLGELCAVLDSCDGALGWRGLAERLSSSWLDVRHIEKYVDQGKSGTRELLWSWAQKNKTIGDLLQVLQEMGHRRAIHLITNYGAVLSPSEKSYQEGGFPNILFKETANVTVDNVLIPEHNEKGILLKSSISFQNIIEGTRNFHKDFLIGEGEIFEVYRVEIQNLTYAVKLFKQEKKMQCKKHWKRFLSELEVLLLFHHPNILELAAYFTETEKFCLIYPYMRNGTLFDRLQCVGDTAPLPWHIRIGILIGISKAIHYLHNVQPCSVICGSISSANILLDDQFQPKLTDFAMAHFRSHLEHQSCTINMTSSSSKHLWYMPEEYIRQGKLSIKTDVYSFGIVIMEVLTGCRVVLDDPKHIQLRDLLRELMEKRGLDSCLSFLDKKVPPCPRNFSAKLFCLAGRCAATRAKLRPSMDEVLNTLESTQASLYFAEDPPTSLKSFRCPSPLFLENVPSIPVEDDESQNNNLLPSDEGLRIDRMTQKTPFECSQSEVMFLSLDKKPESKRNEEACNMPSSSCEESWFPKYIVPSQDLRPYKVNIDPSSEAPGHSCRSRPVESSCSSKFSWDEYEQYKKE
The note with it: IRAK3, 1 μM; read-out: % control. An outline of the steps:
as §1

Chain of CAMKK1 (Q8N5S9 whole entry): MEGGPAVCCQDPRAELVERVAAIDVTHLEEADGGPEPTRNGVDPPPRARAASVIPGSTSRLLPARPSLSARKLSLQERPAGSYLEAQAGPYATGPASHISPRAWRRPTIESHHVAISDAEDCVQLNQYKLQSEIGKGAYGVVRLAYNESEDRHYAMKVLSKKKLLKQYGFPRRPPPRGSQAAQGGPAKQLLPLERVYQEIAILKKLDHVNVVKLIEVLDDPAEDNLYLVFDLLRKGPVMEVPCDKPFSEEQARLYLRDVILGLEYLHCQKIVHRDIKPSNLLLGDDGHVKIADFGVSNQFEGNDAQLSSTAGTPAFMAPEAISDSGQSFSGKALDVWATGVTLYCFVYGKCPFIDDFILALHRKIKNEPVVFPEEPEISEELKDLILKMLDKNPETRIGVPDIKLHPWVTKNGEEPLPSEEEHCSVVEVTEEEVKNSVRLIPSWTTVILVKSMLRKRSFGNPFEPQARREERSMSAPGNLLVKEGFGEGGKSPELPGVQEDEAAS
Chain of BRK (Q13882 whole entry): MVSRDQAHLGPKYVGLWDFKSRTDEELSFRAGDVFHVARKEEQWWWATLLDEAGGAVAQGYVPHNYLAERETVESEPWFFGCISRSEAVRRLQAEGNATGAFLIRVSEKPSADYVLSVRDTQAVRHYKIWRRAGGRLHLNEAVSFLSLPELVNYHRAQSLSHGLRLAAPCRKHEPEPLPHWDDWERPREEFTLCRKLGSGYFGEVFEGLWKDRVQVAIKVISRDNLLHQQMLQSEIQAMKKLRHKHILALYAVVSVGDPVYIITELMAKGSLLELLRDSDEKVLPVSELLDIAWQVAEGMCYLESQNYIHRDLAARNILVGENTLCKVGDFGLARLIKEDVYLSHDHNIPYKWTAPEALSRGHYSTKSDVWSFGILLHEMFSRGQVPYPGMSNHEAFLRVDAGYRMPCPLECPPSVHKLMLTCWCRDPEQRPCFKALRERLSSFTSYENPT
Chain of DDR1 (Q08345 19-913): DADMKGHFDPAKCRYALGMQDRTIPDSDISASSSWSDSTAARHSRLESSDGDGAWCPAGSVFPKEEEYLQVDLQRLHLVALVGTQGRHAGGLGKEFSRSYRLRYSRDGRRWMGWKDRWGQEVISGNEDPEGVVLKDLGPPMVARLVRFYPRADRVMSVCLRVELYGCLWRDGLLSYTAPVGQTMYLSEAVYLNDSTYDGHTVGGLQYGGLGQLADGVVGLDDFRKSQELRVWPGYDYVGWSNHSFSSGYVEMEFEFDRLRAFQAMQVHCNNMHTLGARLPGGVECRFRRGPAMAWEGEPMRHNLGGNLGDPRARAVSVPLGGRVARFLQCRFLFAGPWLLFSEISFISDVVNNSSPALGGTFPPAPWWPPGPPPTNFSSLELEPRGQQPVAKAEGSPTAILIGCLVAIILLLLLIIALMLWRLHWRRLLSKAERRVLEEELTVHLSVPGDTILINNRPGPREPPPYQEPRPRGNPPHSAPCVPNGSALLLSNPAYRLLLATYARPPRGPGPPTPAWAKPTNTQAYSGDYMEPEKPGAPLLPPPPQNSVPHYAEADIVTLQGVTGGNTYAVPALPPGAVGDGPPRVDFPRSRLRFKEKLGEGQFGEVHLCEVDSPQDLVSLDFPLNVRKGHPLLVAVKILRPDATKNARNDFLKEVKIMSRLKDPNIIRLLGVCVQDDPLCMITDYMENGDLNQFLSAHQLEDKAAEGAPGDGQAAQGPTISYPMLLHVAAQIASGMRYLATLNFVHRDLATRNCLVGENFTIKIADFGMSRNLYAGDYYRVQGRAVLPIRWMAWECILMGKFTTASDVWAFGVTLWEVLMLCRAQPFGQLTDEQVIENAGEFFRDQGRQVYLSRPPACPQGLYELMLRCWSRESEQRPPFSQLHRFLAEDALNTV

`CNc1c(-c2ccc(C(=O)N3CCC(N4CCOCC4)CC3)cc2)cnc2[nH]cc(Cl)c12` [Compound 96, (4-(3-chloro-4-(methylamino)-1H-pyrrolo[2,3-b]pyridin-5-yl)phenyl)(4-morpholinopiperidin-1-yl)methanone]: the remaining binding at 1 µM in experiment [1] amounted to 83%; in experiment [2] it was 37%; in experiment [3], 3.8%; in experiment [4], 78%; in experiment [5] it was 26%; in experiment [6], 78%. Further, the remaining binding at 1 µM was 100% in experiment [7] and 76% in experiment [8].

As to `O=C(c1ccc(-c2cnc3[nH]cc(Cl)c3c2NC2CCCC2)cc1)N1CCC(N2CCOCC2)CC1` [Compound 101, (4-(3-chloro-4-(cyclopentylamino)-1H-pyrrolo[2,3-b]pyridin-5-yl)phenyl)(4-morpholinopiperidin-1-yl)methanone], the remaining binding at 1 µM in experiment [1] came to 50%; in experiment [2] it was 66%; in experiment [3] it was 73%; in experiment [4], 86%; in experiment [5], 28%; in experiment [6], 87%. The remaining binding at 1 µM in experiment [7] was 61%; in experiment [8] it was 37%.

`CNc1c(-c2cnn([C@H]3CCN(C(C)=O)C[C@@H]3F)c2)cnc2[nH]cc(Cl)c12` [Compound 77, 1-((3S,4S)-4-(4-(3-chloro-4-(methylamino)-1H-pyrrolo[2,3-b]pyridin-5-yl)-1H-pyrazol-1-yl)-3-fluoropiperidin-1-yl)ethan-1-one]: the remaining binding at 1 µM was determined as 80% in experiment [1]; 47% in experiment [2]; 3.1% in experiment [3]; 95% in experiment [4]; 73% in experiment [5]; 74% in experiment [6]. Also, the results for the remaining binding at 1 µM in experiment [7] and in experiment [8] were 100% and 40%, respectively.
